# Results published in publication PMC6278576, “Analogues of Muraymycin Nucleoside Antibiotics with Epimeric Uridine-Derived Core Structures” (Molecules, 2018).
# Like-named read-outs stand apart in the source and are kept apart here.
# Tests used:
# MraY from S. aureus [1] = target: T1, MraY from S. aureus (Staphylococcus aureus, UniProt Q2FZ93); design: method as in PMID 29438582; conditions: reference compound in Table 1; same value as given in b6; read-out: IC50, in vitro inhibitory activity against MraY from S. aureus; cited from earlier work
# T1 construct: made in house; host or cells: E. coli Lemo21
# E. coli = assay: Antibacterial activity (MIC) against E. coli; format: cell-based; conditions: Escherichia coli, not active
# Method: Muraymycin analogues 10–17 were also studied for their antibacterial activities against E. coli, but were not active (MIC > 50 μg/mL).
# MraY from S. aureus [2] = target: T1, MraY from S. aureus; assay: Fluorescence-based in vitro MraY inhibition assay (dansylated Park's nucleotide, crude membrane preparation); format: biochemical; conditions: for IC50: crude membrane preparation of MraY heterologously overexpressed in E. coli, triplicates, mean ± standard deviation, read-out: IC50, in vitro inhibitory activity against MraY from S. aureus; for fold weaker MraY inhibition than (6′S)-counterpart: (6′R)-derivatives 12 and 13 vs. 10 and 11, respectively
# Method: Target compounds 10–17 were tested in vitro for their inhibitory potency towards the bacterial target enzyme MraY. Therefore, a previously reported fluorescence-based assay was employed, using dansylated Park’s nucleotide and MraY from S. aureus (recombinantly overexpressed in E. coli).
# The overexpression of MraY was performed as described before. A plasmid containing the mraY gene was transformed into E. coli Lemo21 cells, which were plated on lysogeny broth (LB) agar containing kanamycin (50 μg/mL) and chloramphenicol (30 μg/mL). A single colony was picked to induce an overnight culture (10 mL) of LB media containing kanamycin (50 μg/mL) and chloramphenicol (30 μg/mL), which was incubated at 37 °C and 180 rpm for 16 h. A culture of LB media (500 mL) containing kanamycin (50 μg/mL), chloramphenicol (30 μg/mL), and L-rhamnose (1 mM) was inoculated with the overnight culture (500 μL) and then grown at 37 °C and 180 rpm to OD600 0.6. Subsequently, MraY expression was induced with IPTG (1 mM) and the culture was incubated at 37 °C and 180 rpm for 4 h. Cells were then centrifuged and the pellet was resuspended in buffer A (50 mM Tris-HCl buffer pH 7.5, 1 mM MgCl2, 2 mM β-mercaptoethanol, 15 mL overall). Egg white lysozyme (spatula tip), DNAse I (spatula tip), and cOmplete^TM EDTA-free protease inhibitor cocktail (one tablet) were added. Cells were lysed using sonication and then incubated at 4 °C for 30 min. The lysate was centrifuged and the supernatant was centrifuged again. The resultant pellet was resuspended in buffer A (1.7 mL), flash frozen in liquid nitrogen and stored at −80 °C (aliquots of 20 μL). This MraY-containing crude membrane preparation (overall protein concentration ~20.5 mg/mL as determined by OD280) was diluted with water (final overall protein concentration 1 mg/mL) and then directly used for MraY activity assays without further purification.
# The assay was performed as described before. The crude membrane preparation of MraY from S. aureus (1 μL, vide supra) was added to a mixture of undecaprenyl phosphate (50 μM), dansylated Park′s nucleotide (7.5 μM), and the tested compound (at varying concentrations) in buffer (100 mM Tris-HCl buffer pH 7.5, 200 mM KCl, 10 mM MgCl2, 0.1% Triton X-100, 20 μL overall). Fluorescence of the assay mixtures over time was monitored at λex = 355 nm and λem = 520 nm (plate reader, 384-well plate format). MraY activity at a certain inhibitor concentration was determined using linear regression from 0 to 2 min. This measure of activity was plotted against logarithmic inhibitor concentrations and fitted using a sigmoidal fit. This procedure furnished IC50 values with standard deviations.
# T1 sequence (Q2FZ93 whole entry): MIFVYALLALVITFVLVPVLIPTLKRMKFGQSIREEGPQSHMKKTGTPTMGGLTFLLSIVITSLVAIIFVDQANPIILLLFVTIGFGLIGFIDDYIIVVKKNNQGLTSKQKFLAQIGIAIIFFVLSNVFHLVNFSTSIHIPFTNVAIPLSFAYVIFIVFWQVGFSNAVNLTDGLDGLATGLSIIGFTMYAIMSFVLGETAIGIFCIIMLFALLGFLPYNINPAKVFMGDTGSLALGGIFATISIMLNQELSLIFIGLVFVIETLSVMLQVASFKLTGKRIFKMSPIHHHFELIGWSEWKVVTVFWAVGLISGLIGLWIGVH
compound,measurement,setting,value
CC(C)[C@H](NC(=O)N[C@H](C(=O)N[C@H](C(=O)NCCCN[C@@H](C[C@H]1O[C@@H](n2ccc(=O)[nH]c2=O)[C@H](O)[C@@H]1O)C(=O)O)[C@@H](O)C(C)C)[C@@H]1CCNC(=N)N1)C(=O)O [Compound 9],IC50,MraY from S. aureus [1],0.095 ± 0.019 µM
"CC(C)C[C@H](NC(=O)[C@H](CCCCN)NC(=O)N[C@H](C(=O)O)C(C)C)C(=O)NCCCN[C@@H](C[C@H]1O[C@@H](n2ccc(=O)[nH]c2=O)[C@H](O)[C@@H]1O)C(=O)O [Compound 10, 5′-deoxy-L-Leu muraymycin analogue]",MIC,E. coli,> 50 µg/mL
same,fold loss in inhibitory potency (MraY) vs. 9,"MraY from S. aureus [2]; compounds 10 vs. 9, epicapreomycidine replaced by L-lysine, nonhydroxylated L-leucine",~ 26 fold
same,IC50,MraY from S. aureus [2],2.5 ± 0.6 µM
"CC(C)C[C@@H](NC(=O)[C@H](CCCCN)NC(=O)N[C@H](C(=O)O)C(C)C)C(=O)NCCCN[C@@H](C[C@H]1O[C@@H](n2ccc(=O)[nH]c2=O)[C@H](O)[C@@H]1O)C(=O)O [Compound 11, 5′-deoxy-D-Leu muraymycin analogue]",MIC,E. coli,> 50 µg/mL
same,IC50,MraY from S. aureus [2],2 ± 0.6 µM
"CC(C)C[C@H](NC(=O)[C@H](CCCCN)NC(=O)N[C@H](C(=O)O)C(C)C)C(=O)NCCCN[C@H](C[C@H]1O[C@@H](n2ccc(=O)[nH]c2=O)[C@H](O)[C@@H]1O)C(=O)O [Compound 12, 5′-deoxy-6′-epi-L-Leu muraymycin analogue]",MIC,E. coli,> 50 µg/mL
same,fold weaker MraY inhibition than (6′S)-counterpart,MraY from S. aureus [2],15 fold
same,IC50,MraY from S. aureus [2],38 ± 6 µM
"CC(C)C[C@@H](NC(=O)[C@H](CCCCN)NC(=O)N[C@H](C(=O)O)C(C)C)C(=O)NCCCN[C@H](C[C@H]1O[C@@H](n2ccc(=O)[nH]c2=O)[C@H](O)[C@@H]1O)C(=O)O [Compound 13, 5′-deoxy-6′-epi-D-Leu muraymycin analogue]",MIC,E. coli,> 50 µg/mL
same,fold weaker MraY inhibition than (6′S)-counterpart,MraY from S. aureus [2],12 fold
same,IC50,MraY from S. aureus [2],24 ± 9 µM
"CC(C)C[C@H](NC(=O)[C@H](CCCCN)NC(=O)N[C@H](C(=O)O)C(C)C)C(=O)NCCCN[C@@H](C(=O)O)[C@H](O)[C@H]1O[C@@H](n2ccc(=O)[nH]c2=O)[C@H](O)[C@@H]1O [Compound 14, 6′-epi-L-Leu muraymycin analogue]",MIC,E. coli,> 50 µg/mL
same,IC50,MraY from S. aureus [2],10 ± 4 µM
"CC(C)C[C@@H](NC(=O)[C@H](CCCCN)NC(=O)N[C@H](C(=O)O)C(C)C)C(=O)NCCCN[C@@H](C(=O)O)[C@H](O)[C@H]1O[C@@H](n2ccc(=O)[nH]c2=O)[C@H](O)[C@@H]1O [Compound 15, 6′-epi-D-Leu muraymycin analogue]",MIC,E. coli,> 50 µg/mL
same,IC50,MraY from S. aureus [2],10 ± 2 µM
"CC(C)C[C@H](NC(=O)[C@H](CCCCN)NC(=O)N[C@H](C(=O)O)C(C)C)C(=O)NCCCN[C@H](C(=O)O)[C@@H](O)[C@H]1O[C@@H](n2ccc(=O)[nH]c2=O)[C@H](O)[C@@H]1O [Compound 16, 5′-epi-L-Leu muraymycin analogue]",MIC,E. coli,> 50 µg/mL
same,fold more active (MraY) than D-leucine epimer 17,MraY from S. aureus [2]; 16 vs. 17,~ 3 fold
same,IC50,MraY from S. aureus [2],6.2 ± 2.8 µM
"CC(C)C[C@@H](NC(=O)[C@H](CCCCN)NC(=O)N[C@H](C(=O)O)C(C)C)C(=O)NCCCN[C@H](C(=O)O)[C@@H](O)[C@H]1O[C@@H](n2ccc(=O)[nH]c2=O)[C@H](O)[C@@H]1O [Compound 17, 5′-epi-D-Leu muraymycin analogue]",MIC,E. coli,> 50 µg/mL
same,IC50,MraY from S. aureus [2],21 ± 4 µM
